Measurements from BindingDB's records for doi:10.1016/s0960-894x(99)00552-1 (Smithkline Beecham Pharmaceuticals, 1999).

Experiment: Inhibitory activity against IgE receptor

Row | IC50 | SMILES
1 | > 10000 nM | CNC(=O)[C@@H](NC(=O)[C@H](Cc1ccc2c(c1)CCCC2)[C@H](O)C(=O)NO)C(C)(C)C [(2R,3S)-N*4*-((S)-2,2-Dimethyl-1-methylcarbamoyl-propyl)-2,N*1*-dihydroxy-3-(5,6,7,8-tetrahydro-naphthalen-2-ylmethyl)-succinamide]
2 | > 20000 nM | CNC(=O)[C@H](Cc1ccccc1)NC(=O)[C@H](Cc1cc2cccc(OC)c2o1)[C@H](O)C(=O)NO [(2R,3S)-2,N*1*-Dihydroxy-3-(7-methoxy-benzofuran-2-ylmethyl)-N*4*-((S)-1-methylcarbamoyl-2-phenyl-ethyl)-succinamide]
3 | 1000 nM | CC(C)(C)[C@H](NC(=O)[C@H](Cc1ccc2ncccc2c1)[C@H](O)C(=O)NO)C(N)=O [(2R,3S)-N*4*-((S)-1-Carbamoyl-2,2-dimethyl-propyl)-2,N*1*-dihydroxy-3-quinolin-6-ylmethyl-succinamide]
4 | > 1000 nM | CNC(=O)[C@H](Cc1ccccc1)NC(=O)[C@H](Cc1csc2ccccc12)[C@H](O)C(=O)NO [(2R,3S)-2-Benzo[b]thiophen-3-ylmethyl-3,N*4*-dihydroxy-N*1*-((S)-1-methylcarbamoyl-2-phenyl-ethyl)-succinamide]
5 | > 10000 nM | NC(=O)[C@H](Cc1ccccc1)NC(=O)[C@H](Cc1sc2ccccc2c1Cl)[C@H](O)C(=O)NO [(2R,3S)-N*1*-((S)-1-Carbamoyl-2-phenyl-ethyl)-2-(3-chloro-benzo[b]thiophen-2-ylmethyl)-3,N*4*-dihydroxy-succinamide]
6 | 70 nM | CC(C)(C)[C@H](NC(=O)C(C[C@H]1CCc2ccccc2C1)[C@H](O)C(=O)NO)C(N)=O (some centres not stated)
7 | 100 nM | CNC(=O)[C@H](Cc1ccccc1)NC(=O)[C@H](Cc1cc2ccccc2o1)[C@H](O)C(=O)NO [(2R,3S)-2-Benzofuran-2-ylmethyl-3,N*4*-dihydroxy-N*1*-((S)-1-methylcarbamoyl-2-phenyl-ethyl)-succinamide]
8 | 1000 nM | O=C(C[C@@H](Cc1ccc2ccccc2c1)C(=O)N[C@@H](Cc1ccccc1)C(=O)NCc1ccccc1)NO [(R)-N*1*-((S)-1-Benzylcarbamoyl-2-phenyl-ethyl)-N*4*-hydroxy-2-naphthalen-2-ylmethyl-succinamide]
9 | 220 nM | NC(=O)[C@H](Cc1ccccc1)NC(=O)[C@H](Cc1ccc2cc(F)ccc2c1)[C@H](O)C(=O)NO [(2R,3S)-N*1*-((S)-1-Carbamoyl-2-phenyl-ethyl)-2-(6-fluoro-naphthalen-2-ylmethyl)-3,N*4*-dihydroxy-succinamide]
10 | 20 nM | CC(C)(C)[C@H](NC(=O)[C@H](Cc1cnc2ccccc2c1)[C@H](O)C(=O)NO)C(N)=O [(2R,3S)-N*4*-((S)-1-Carbamoyl-2,2-dimethyl-propyl)-2,N*1*-dihydroxy-3-quinolin-3-ylmethyl-succinamide]
11 | 20 nM | NC(=O)[C@H](Cc1ccccc1)NC(=O)[C@H](Cc1cc2ccccc2s1)[C@H](O)C(=O)NO [(2R,3S)-2-Benzo[b]thiophen-2-ylmethyl-N*1*-((S)-1-carbamoyl-2-phenyl-ethyl)-3,N*4*-dihydroxy-succinamide]
12 | 100 nM | NC(=O)[C@H](Cc1ccccc1)NC(=O)[C@H](Cc1ccc2ccc(F)cc2c1)[C@H](O)C(=O)NO [(2R,3S)-N*1*-((S)-1-Carbamoyl-2-phenyl-ethyl)-2-(7-fluoro-naphthalen-2-ylmethyl)-3,N*4*-dihydroxy-succinamide]
13 | 230 nM | CNC(=O)[C@@H](NC(=O)[C@H](Cc1ccc2ccccc2c1)[C@H](O)C(=O)NO)C(C)(C)C [(2R,3S)-N*4*-((S)-2,2-Dimethyl-1-methylcarbamoyl-propyl)-2,N*1*-dihydroxy-3-naphthalen-2-ylmethyl-succinamide]
14 | > 20000 nM | NC(=O)[C@H](Cc1ccccc1)NC(=O)[C@H](Cc1ccc2ccc(OCc3ccccc3)cc2c1)[C@H](O)C(=O)NO [(2R,3S)-2-(7-Benzyloxy-naphthalen-2-ylmethyl)-N*1*-((S)-1-carbamoyl-2-phenyl-ethyl)-3,N*4*-dihydroxy-succinamide]
15 | 600 nM | NC(=O)[C@H](Cc1ccccc1)NC(=O)[C@H](Cc1ccc2ccccc2c1)[C@H](O)C(=O)NO [(2R,3S)-N*4*-((S)-1-Carbamoyl-2-phenyl-ethyl)-2,N*1*-dihydroxy-3-naphthalen-2-ylmethyl-succinamide]
16 | 80 nM | CC(C)(C)[C@H](NC(=O)[C@H](Cc1ccc2ccc(F)cc2c1)[C@H](O)C(=O)NO)C(N)=O [(2R,3S)-N*1*-((S)-1-Carbamoyl-2,2-dimethyl-propyl)-2-(7-fluoro-naphthalen-2-ylmethyl)-3,N*4*-dihydroxy-succinamide]
17 | > 1000 nM | CC(C)(C)[C@H](NC(=O)[C@H](Cc1ccc2cc(F)c(F)cc2c1)[C@H](O)C(=O)NO)C(N)=O [(2R,3S)-N*1*-((S)-1-Carbamoyl-2,2-dimethyl-propyl)-2-(6,7-difluoro-naphthalen-2-ylmethyl)-3,N*4*-dihydroxy-succinamide]
18 | 20 nM | CC(C)(C)[C@H](NC(=O)[C@H](Cc1ccc2ccccc2c1)[C@H](O)C(=O)NO)C(N)=O [(2R,3S)-N*4*-((S)-1-Carbamoyl-2,2-dimethyl-propyl)-2,N*1*-dihydroxy-3-naphthalen-2-ylmethyl-succinamide]
19 | 400 nM | CNC(=O)[C@H](Cc1ccccc1)NC(=O)[C@H](Cc1ccc2ccccc2c1)[C@H](O)C(=O)NO [(2R,3S)-2,N*1*-Dihydroxy-N*4*-((S)-1-methylcarbamoyl-2-phenyl-ethyl)-3-naphthalen-2-ylmethyl-succinamide]
20 | 320 nM | NC(=O)[C@H](Cc1ccccc1)NC(=O)[C@H](Cc1nc2ccccc2s1)[C@H](O)C(=O)NO [(2R,3S)-2-Benzothiazol-2-ylmethyl-N*1*-((S)-1-carbamoyl-2-phenyl-ethyl)-3,N*4*-dihydroxy-succinamide]
21 | 760 nM | NC(=O)[C@H](Cc1ccccc1)NC(=O)[C@H](Cc1ccc2ccc(O)cc2c1)[C@H](O)C(=O)NO [(2R,3S)-N*4*-((S)-1-Carbamoyl-2-phenyl-ethyl)-2,N*1*-dihydroxy-3-(7-hydroxy-naphthalen-2-ylmethyl)-succinamide]
22 | 70 nM | CC(C)(C)[C@H](NC(=O)C(C[C@@H]1CCc2ccccc2C1)[C@H](O)C(=O)NO)C(N)=O (some centres not stated)
